Measured values: patent publication US20120046306A1, “Substituted Heteroaryl Spiropyrrolidine MDM2 Antagonists” (priority 2010, published 2012)

Target: interaction between p53 and MDM2 proteins (Homo sapiens, UniProt Q00987)
Assay: HTRF assay of inhibition of p53-MDM2 interaction
Type: binding
Settings: GST-MDM2 and biotinylated p53 peptide, bsa: 0.02%
Protocol: The ability of the compounds to inhibit the interaction between p53 and MDM2 proteins was measured by an HTRF (homogeneous time-resolved fluorescence) assay in which recombinant GST-tagged MDM2 binds to a peptide that resembles the MDM2-interacting region of p53. Binding of GST-MDM2 protein and p53-peptide (biotinylated on its N-terminal end) is registered by the FRET (fluorescence resonance energy transfer) between Europium (Eu)-labeled anti-GST antibody and streptavidin-conjugated Allophycocyanin (APC).
Add 20 uL streptavidin-APC and Eu-anti-GST antibody mixture (6 nM Eu-anti-GST and 60 nM streptavidin-APC working solution) in TBS buffer with 0.2% BSA, shake at room temperature for 30 minutes and read using a TRF-capable plate reader at
If not specified, the reagents were purchased from Sigma Chemical Co.

Sequence of interaction between p53 and MDM2 proteins (Q00987 whole entry): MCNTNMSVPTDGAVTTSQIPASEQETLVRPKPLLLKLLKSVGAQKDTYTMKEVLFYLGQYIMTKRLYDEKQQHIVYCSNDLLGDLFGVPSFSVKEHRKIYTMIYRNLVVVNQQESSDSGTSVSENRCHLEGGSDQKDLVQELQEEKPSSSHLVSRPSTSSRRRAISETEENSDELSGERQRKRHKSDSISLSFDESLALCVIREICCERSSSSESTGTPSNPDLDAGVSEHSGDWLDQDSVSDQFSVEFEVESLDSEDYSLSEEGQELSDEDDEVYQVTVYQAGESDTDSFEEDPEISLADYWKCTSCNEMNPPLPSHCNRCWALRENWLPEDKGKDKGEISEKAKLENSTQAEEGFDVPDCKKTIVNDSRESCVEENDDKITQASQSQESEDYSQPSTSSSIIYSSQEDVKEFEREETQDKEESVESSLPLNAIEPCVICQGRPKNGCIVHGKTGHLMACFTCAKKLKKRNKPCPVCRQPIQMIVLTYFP

SMILES | IC50 [nM]
COC(=O)c1ccc(NC(=O)[C@@H]2N[C@@H](CC(C)(C)C)[C@@]3(C(=O)Nc4cc(C)ncc43)[C@H]2c2cccc(Cl)c2F)c(OC)c1 (racemic) [Example 119, methyl rac-4-((2S,3R,4S,5R)-4-(3-chloro-2-fluorophenyl)-6′-methyl-2-neopentyl-2′-oxo-1′,2′-dihydrospiro[pyrrolidine-3,3′-pyrrolo[3,2-c]pyridine]-5-ylcarboxamido)-3-methoxybenzoate] | 11.6
COc1cc(C(N)=O)ccc1NC(=O)[C@@H]1N[C@@H](CC(C)(C)C)[C@@]2(C(=O)Nc3cc(C)ncc32)[C@H]1c1cccc(Cl)c1F (racemic) [Example 121, rac-(2S,3R,4S,5R)-N-(4-carbamoyl-2-methoxyphenyl)-4-(3-chloro-2-fluorophenyl)-6′-methyl-2-neopentyl-2′-oxo-1′,2′-dihydrospiro[pyrrolidine-3,3′-pyrrolo[3,2-c]pyridine]-5-carboxamide] | 11.8
COC(=O)c1ccc(NC(=O)[C@@H]2N[C@@H](CC(C)(C)C)[C@@]3(C(=O)Nc4c(Cl)ccnc43)[C@H]2c2cccc(Cl)c2F)c(OC)c1 (racemic) [Example 123, methyl rac-4-((2S,3S,4S,5R)-7′-chloro-4-(3-chloro-2-fluorophenyl)-2-neopentyl-2′-oxo-1′,2′-dihydrospiro[pyrrolidine-3,3′-pyrrolo[3,2-b]pyridine]-5-ylcarboxamido)-3-methoxybenzoate] | 6250

Continued, values first:

IC50 [nM] | SMILES
12 | COc1cc(C(=O)O)ccc1NC(=O)[C@@H]1N[C@@H](CC(C)(C)C)[C@@]2(C(=O)Nc3cc(C)ncc32)[C@H]1c1cccc(Cl)c1F (racemic) [Example 120, rac-4-((2S,3R,4S,5R)-4-(3-chloro-2-fluorophenyl)-6′-methyl-2-neopentyl-2′-oxo-1′,2′-dihydrospiro[pyrrolidine-3,3′-pyrrolo[3,2-c]pyridine]-5-ylcarboxamido)-3-methoxybenzoic acid]
1010 | COc1cc(C(=O)O)ccc1NC(=O)[C@@H]1N[C@@H](CC(C)(C)C)[C@@]2(C(=O)Nc3c(Cl)ccnc32)[C@H]1c1cccc(Cl)c1F (racemic) [Example 124, rac-4-((2S,3S,4S,5R)-7′-chloro-4-(3-chloro-2-fluorophenyl)-2-neopentyl-2′-oxo-1′,2′-dihydrospiro[pyrrolidine-3,3′-pyrrolo[3,2-b]pyridine]-5-ylcarboxamido)-3-methoxybenzoic acid]
6.4 | COc1cc(OCCO)ccc1NC(=O)[C@@H]1N[C@@H](CC(C)(C)C)[C@@]2(C(=O)Nc3cc(Cl)cnc32)[C@H]1c1cccc(Cl)c1F [Example 75, (2S,3S,4S,5R)-6′-chloro-4-(3-chloro-2-fluorophenyl)-N-(4-(2-hydroxyethoxy)-2-methoxyphenyl)-2-neopentyl-2′-oxo-1′,2′-dihydrospiro[pyrrolidine-3,3′-pyrrolo[3,2-b]pyridine]-5-carboxamide]
